Experimental findings from patent publication US20260137677A1, “PROTACS USEFUL AGAINST THE MAIN PROTEASE SARS-COV-2” (Tocris Cookson Limited, priority 2022, published 2026) are described below.

The term IC50 denotes the concentration that gives 50% inhibition.

For assay [1], the target named is T1, recombinant SARS-CoV-2 main protease (Mpro) (Severe acute respiratory syndrome coronavirus 2, UniProt P0DTD1).
T1 construct: the main protease (Mpro; also called 3CLpro) which has an essential role in processing the polyproteins
Nature of the assay: biochemical. To be noted: FRET assay, Mpro 50 nM, substrate 10 μM.

In assay [2] the test system is SARS-CoV-2 (SARS-CoV2/ZG/297-20) in Vero E6 cells. As to the kind of experiment: microbe, parasite or virus in culture. It is filed as cell-based. The note with it: Severe acute respiratory syndrome coronavirus 2, Vero C1008, 72 h; for inhibition at 10 µM: read-out: Antiviral Activity 10 uM; for inhibition at 50 µM: read-out: Antiviral Activity 50 uM.

Regarding `C[C@@H](NC(=O)[C@H](c1cccnc1)N(C(=O)c1ccco1)c1ccc(-c2ccccc2)cc1)c1cccc(OCCOc2cccc3c2C(=O)N(C2CCC(=O)NC2=O)C3=O)c1` (some centres unmarked) [TS338F1], in assay [1], the half-inhibitory concentration (IC50) was in the range of 10 to 25 µM.
For the compound `O=C1CCC(N2C(=O)c3cccc(NCCCCNC(=O)[C@H](NC(=O)[C@@H](c4cccnc4)N(C(=O)c4ccco4)c4ccc(-c5ccccc5)cc4)c4ccccc4)c3C2=O)C(=O)N1` (mixture of isomers) [TS451F1], in assay [2], the inhibition at 10 µM is < 0% and the inhibition at 50 µM was < 0%. For the same compound, in assay [1], the half-inhibitory concentration (IC50) is < 10 µM.
Regarding `O=C1CCC(N2C(=O)c3cccc(OCCOCCOCCOCCNC(=O)c4ccc5c(N6C(=O)NC7(CC(c8ccccc8Cl)C7)C6=O)cncc5c4)c3C2=O)C(=O)N1` (centres unmarked) [Compound C10778Y, 4-(2-(2-chlorophenyl)-6,8-dioxo-5,7-diazaspiro[3.4]octan-7-yl)-N-(2-(2-(2-(2-((2-(2,6-dioxopiperidin-3-yl)-1,3-dioxoisoindolin-4-yl)oxy)ethoxy)ethoxy)ethoxy)ethyl)isoquinoline-7-carboxamide], in assay [2], the inhibition at 10 µM was < 25% and the inhibition at 50 µM is < 50%. Also, the IC50 in assay [1] is < 0.1 µM.
For `Cc1ncsc1-c1ccc(CNC(=O)[C@@H]2C[C@@H](O)CN2C(=O)[C@@H](NC(=O)C2(F)CC2)C(C)(C)C)c(OCCCCCCNC(=O)[C@@H](NC(=O)C(c2cccnc2)N(C(=O)c2ccco2)c2ccc3c(c2)oc2ccccc23)c2ccccc2)c1` (some centres unmarked) [TS349F1], the IC50 in assay [1] was < 10 µM.
As to `O=C1CCC(N2C(=O)c3cccc(OCCCCCCCCNC(=O)c4ccc5c(N6C(=O)NC7(CC(c8ccccc8Cl)C7)C6=O)cncc5c4)c3C2=O)C(=O)N1` (centres unmarked) [Compound C10778T, 4-(2-(2-chlorophenyl)-6,8-dioxo-5,7-diazaspiro[3.4]octan-7-yl)-N-(8-((2-(2,6-dioxopiperidin-3-yl)-1,3-dioxoisoindolin-4-yl)oxy)octyl)isoquinoline-7-carboxamide], in assay [2], the inhibition at 10 µM is < 0% and the inhibition at 50 µM is < 0%. For the same compound, the IC50 in assay [1] was < 0.1 µM.
With `O=C1CCC(N2C(=O)c3cccc(NCCOCCOCCOCCNC(=O)C(NC(=O)[C@@H](c4cccnc4)N(C(=O)c4ccco4)c4ccc5c(c4)oc4ccccc45)c4ccccc4)c3C2=O)C(=O)N1` (mixture of isomers) [TS297F1], in assay [2], the inhibition at 10 µM is < 0% and the inhibition at 50 µM is < 0%. Besides, the IC50 in assay [1] was < 1 µM.
As to `C[C@@H](NC(=O)C(c1cccnc1)N(C(=O)c1ccco1)c1ccc(-c2ccccc2)cc1)c1cccc(OCCCCOc2cccc3c2C(=O)N(C2CCC(=O)NC2=O)C3=O)c1` (some centres unmarked) [TS325F2], the half-maximal inhibitory concentration (IC50) in assay [1] is < 10 µM.
Consider `O=C1CCC(N2C(=O)c3cccc(OCCCCNC(=O)c4ccc5cncc(N6C(=O)NC7(CC(c8ccccc8Cl)C7)C6=O)c5c4)c3C2=O)C(=O)N1` (centres unmarked) [Compound C107780, 4-(2-(2-chlorophenyl)-6,8-dioxo-5,7-diazaspiro[3.4]octan-7-yl)-N-(4-((2-(2,6-dioxopiperidin-3-yl)-1,3-dioxoisoindolin-4-yl)oxy)butyl)isoquinoline-6-carboxamide], for which, in assay [2], the inhibition at 10 µM was < 25% and the inhibition at 50 µM is > 75%. Further, the IC50 in assay [1] was < 0.1 µM.
Consider `O=C1CCC(N2C(=O)c3cc(F)c(N4CCN(C(=O)[C@H](NC(=O)[C@@H](c5cccnc5)N(C(=O)c5ccco5)c5ccc(-c6ccccc6)cc5)c5ccccc5)CC4)cc3C2=O)C(=O)N1` (single isomer, unassigned) [TS467], for which, in assay [2], the inhibition at 10 µM is < 25% and the inhibition at 50 µM is < 25%. Moreover, the IC50 in assay [1] was < 0.1 µM.
Consider `O=C1CCC(N2C(=O)c3ccc(N4CCN(C(=O)[C@H](NC(=O)[C@@H](c5cccnc5)N(C(=O)c5ccco5)c5ccc(-c6ccccc6)cc5)c5ccccc5)CC4)cc3C2=O)C(=O)N1` (single isomer, unassigned) [TS466], for which, in assay [2], the inhibition at 10 µM is < 0% and the inhibition at 50 µM was < 0%. In addition, the IC50 in assay [1] is < 0.1 µM.
With `O=C(COc1ccc(C2CCC(=O)NC2=O)cc1)NCCCCCNC(=O)c1ccc2c(N3C(=O)NC4(CC(c5ccccc5Cl)C4)C3=O)cncc2c1` (centres unmarked) [Compound C10778X, 4-(2-(2-chlorophenyl)-6,8-dioxo-5,7-diazaspiro[3.4]octan-7-yl)-N-(5-(2-(4-(2,6-dioxopiperidin-3-yl)phenoxy)acetamido)pentyl)isoquinoline-7-carboxamide], in assay [2], the inhibition at 10 µM is < 0% and the inhibition at 50 µM is < 0%. The IC50 in assay [1] is < 0.1 µM.
As to `O=C1CCC(N2C(=O)c3cccc(NCCOCCOCCOCCOCCNC(=O)C(NC(=O)[C@@H](c4cccnc4)N(C(=O)c4ccco4)c4ccc5c(c4)oc4ccccc45)c4ccccc4)c3C2=O)C(=O)N1` (mixture of isomers) [TS303F1], in assay [2], the inhibition at 10 µM was < 0% and the inhibition at 50 µM is < 0%. Also, the IC50 in assay [1] was < 1 µM.
For `O=C1CCC(N2C(=O)c3cccc(NCCNC(=O)[C@@H](NC(=O)[C@@H](c4cccnc4)N(C(=O)c4ccco4)c4ccc5c(c4)oc4ccccc45)c4ccccc4)c3C2=O)C(=O)N1` (mixture of isomers) [TS365F1], in assay [2], the inhibition at 10 µM is < 75% and the inhibition at 50 µM is < 25%. The IC50 in assay [1] is < 1 µM.
Turning to `Cc1ncsc1-c1ccc(CNC(=O)[C@@H]2C[C@@H](O)CN2C(=O)[C@@H](NC(=O)C2(F)CC2)C(C)(C)C)c(OCCNC(=O)[C@@H](NC(=O)C(c2cccnc2)N(C(=O)c2ccco2)c2ccc3c(c2)oc2ccccc23)c2ccccc2)c1` (some centres unmarked) [TS347F1], in assay [1], the 50% inhibitory concentration (IC50) was < 10 µM.
With `O=C1CCC(N2C(=O)c3cccc(NCCCCNC(=O)[C@@H](NC(=O)C(c4cccnc4)N(C(=O)c4ccco4)c4ccc5c(c4)oc4ccccc45)c4ccccc4)c3C2=O)C(=O)N1` (mixture of isomers) [TS313F1], in assay [2], the inhibition at 10 µM is < 25% and the inhibition at 50 µM is < 0%. In assay [1], the half-maximal inhibitory concentration (IC50) is < 1 µM.
`O=C1CCC(N2C(=O)c3cccc(NCCCCCNC(=O)C(NC(=O)[C@@H](c4cccnc4)N(C(=O)c4ccco4)c4ccc5c(c4)oc4ccccc45)c4ccccc4)c3C2=O)C(=O)N1` (mixture of isomers) [TS301F1]: in assay [2], the inhibition at 10 µM was < 0% and the inhibition at 50 µM was < 0%. For the same compound, the IC50 in assay [1] was in the range of 10 to 25 µM.
As for `C[C@H](NC(=O)[C@@H](c1cccnc1)N(C(=O)c1ccco1)c1ccc(-c2ccccc2)cc1)c1ccccc1OCCCCOc1cccc2c1C(=O)N(C1CCC(=O)NC1=O)C2=O` (stereo in doubt) [TS355F1], the 50% inhibitory concentration (IC50) in assay [1] was < 10 µM.
Take `O=C1CCC(N2C(=O)c3cccc(NCCOCCOCCOCCNC(=O)[C@H](NC(=O)[C@@H](c4cccnc4)N(C(=O)c4ccco4)c4ccc(-c5ccccc5)cc4)c4ccccc4)c3C2=O)C(=O)N1` (mixture of isomers) [TS455F1]: in assay [2], the inhibition at 10 µM was < 0% and the inhibition at 50 µM was < 0%. For the same compound, the IC50 in assay [1] was < 0.1 µM.
Regarding `O=C1CCC(N2C(=O)c3cccc(NCCOCCOCCNC(=O)[C@@H](NC(=O)C(c4cccnc4)N(C(=O)c4ccco4)c4ccc5c(c4)oc4ccccc45)c4ccccc4)c3C2=O)C(=O)N1` (some centres unmarked) [TS302F1], the IC50 in assay [1] was < 10 µM.
For the compound `C[C@@H](NC(=O)[C@H](c1cccnc1)N(C(=O)c1ccco1)c1ccc(-c2ccccc2)cc1)c1cccc(OCCCCCCCCOc2cccc3c2C(=O)N(C2CCC(=O)NC2=O)C3=O)c1` (some centres unmarked) [TS339F2], the IC50 in assay [1] lay within 10 to 25 µM.
Consider `C[C@@H](NC(=O)[C@H](c1cccnc1)N(C(=O)c1ccco1)c1ccc(-c2ccccc2)cc1)c1cccc(OCCCCOc2cccc3c2C(=O)N(C2CCC(=O)NC2=O)C3=O)c1` (some centres unmarked) [TS325F1], for which the IC50 in assay [1] was < 10 µM.
